{"source": "patent US20170239307A1", "about": "“COMPOSITION OF DOXYCYCLINE IN LIPOSOMES FOR THE PREVENTION, IMPROVEMENT AND/OR TREATMENT OF OCULAR PATHOLOGIES” (AGENCIA PÚBLICA EMPRESARIAL SANITARIA HOSPITAL ALTO …, priority 2014, published 2017)", "key": {"[1]": {"test_system": "aneurysmal dilatation", "conditions": "rats; cited from earlier work"}, "[2]": {"test_system": "chronic anterior and posterior blepharitis", "assay": "Case report: patient with blepharitis and glycemic decompensation, clinic examinations", "conditions": "same patient; high doses of oral doxycycline prescribed for 20 days, treatment abandoned", "description": "Treatment with tobramycin and dexamethasone in the form of eye drops and artificial tears was established at that time."}, "[3]": {"test_system": "diabetic retinopathy", "assay": "Case report: supervision of the fundus of the eye in a diabetic patient", "assay_type": "in vivo", "conditions": "diabetic patient with high blood glucose; treatment orally and as eye drops from 11 Feb. 2009"}, "[4]": {"test_system": "thrombosis", "conditions": "certain groups of hemodialysis patients; cited from earlier work"}, "[5]": {"test_system": "symptoms derived from blepharitis-dry eye like disease", "assay": "Symptom score according to the dry eye questionnaire", "assay_type": "in vivo, patients", "source_text": "FIG. 2. Individual analysis of each patient according to dry eye questionnaire score. All patients completed a questionnaire to evaluate the symptoms derived from blepharitis-dry eye like disease. […] FIG. 3. […] This figure complements FIG. 2. This test was designed (see test design literature) for assessing the symptoms the patient experiences and they can be expressed by means of a score based on questions about these symptoms."}, "[6]": {"test_system": "vascular intimal layer", "conditions": "patients taking doxycycline; cited from earlier work"}}}
{"smiles": "C[C@H]1c2cccc(O)c2C(O)=C2C(=O)[C@]3(O)C(=O)/C(=C(/N)O)C(=O)[C@@H](N(C)C)[C@@H]3[C@@H](O)[C@@H]21", "note": "[doxycycline, (2Z,4S,4aR,5S,5aR,6R,12aS)-2-(amino-hydroxymethylidene)-4-dimethylamino-5,10,11,12a-tetrahydroxy-6-methyl-4a,5,5a,6-tetrahydro-4H-tetracene-1,3,12-trione]", "values": [{"measurement": "aneurysmal dilatation", "setting": "[1]", "result": "capable of preventing aneurysmal dilatation without subsequent signs of inflammation"}, {"measurement": "intolerance / side effect", "setting": "[2]", "result": "an episode of gastritis"}, {"measurement": "signs of diabetic retinopathy", "setting": "[3]", "result": "no signs of diabetic retinopathy"}, {"measurement": "prevention of thrombosis", "setting": "[4]", "result": "effective in the prevention of thrombosis"}, {"measurement": "symptom score, dry eye questionnaire, each patient", "setting": "[5]; 12 blepharitis patients, before treatment at least moderate, most severe, FIG. 2", "result": "symptoms improved"}, {"measurement": "sum of all the scores in all patients, dry eye questionnaire", "setting": "[5]; before vs after treatment, FIG. 3", "result": "Symptoms decreased significantly"}, {"measurement": "vascular intimal layer proliferation and muscle cell migration", "setting": "[6]", "result": "less vascular intimal layer proliferation as well as less muscle cell migration"}]}
